Legend:
human mGluR5a receptor [1] = target: T1, human mGluR5a receptor (Homo sapiens, UniProt P41594); test: Functional Assay 3: as Functional Assay 2 but clone H12H; type: cell-based; settings: for EC50: glutamate EC20; for Emax: maximum average response at a single concentration
T1 construct: host or cells: HEK293A (monoclones H10H and H12H)
Procedure: HEK cells transfected with the human mGluR5a receptor (H10H cell line) were plated at 15.000 cells/well in clear-bottomed poly-D-lysine-coated assay plates (BD Falcon) in glutamate-glutamine-free growth medium and incubated overnight at 37° C. and 5% CO2. The following day, the growth medium was removed and the cells were washed with assay buffer containing 1× Hank's balanced salt solution (Invitrogen, Carlsbad, Calif.), 20 mM HEPES, 2.5 mM probenecid, pH 7.4 and left with 20 μL of this reagent. Following this step, the cells were loaded with calcium indicator dye, fluo-4 AM, to a final concentration of 2 μM and incubated for 40-45 min at 37° C. The dye solution was removed and replaced with assay buffer. Cell plates were held for 10-15 min at room temperature and were then loaded into the Functional Drug Screening System 6000 (FDSS 6000, Hamamatsu, Japan).
After establishment of a fluorescence baseline for about 3 seconds, the compounds of the present invention were added to the cells, and the response in cells was measured. 2.3 minutes later an EC20 concentration of the mGluR5 receptor agonist glutamate was added to the cells, and the response of the cells was measured for about 1.7 minutes. All test compounds were dissolved and diluted to a concentration of 10 mM in 100% DMSO and then serially diluted into assay buffer for a 2× stock solution in 0.6% DMSO; stock compounds were then added to the assay for a final DMSO concentration of 0.3% after the first addition to the assay well. Calcium fluorescence measures were recorded as fold over basal fluorescence; raw data was then normalized to the maximal response to glutamate. Potentiation of the agonist response of the mGluR5 receptor in the present invention was observed as an increase in response to submaximal concentrations of glutamate in the presence of compound compared to the response to glutamate in the absence of compound.
The concentration-response curves of compounds of the present invention, obtained in the presence of EC20 of mGluR5 receptor agonist glutamate to determine positive allosteric modulation, were generated using Microsoft Excel with IDBS XLfit add-ins. The raw data file containing all time points was used as the data source in the analysis template. This was saved by the FDSS as a tab-delimitted text file. Data were normalized using a static ratio function (F/F0) for each measurement of the total 350 values per well divided by each well's initial value. Data was then reduced as to peak amplitudes (Max−Initial Min) using a time range that starts approximately 1 second after the glutamate EC20 addition and continues for approximately 40 seconds. This is sufficient time to capture the peak amplitude of the cellular calcium response. Individual amplitudes were expressed as % effect by multiplying each amplitude by 100 and then dividing the product by the mean of the amplitudes derived from the glutamate ECMax-treated wells. pEC50 values for test compounds were generated by fitting the normalized values versus the log of the test compound concentration (in mol/L) using a 4 parameter logistic equation where none of the parameters were fixed. Each of the three values collected at each concentration of test compound were weighted evenly. Individual values falling outside the 95% prediction limits of the curve fit were automatically excluded from the fit. […] These two methods are in good agreement for curves with a clear plateau at the high concentration range. […] For consistency purposes across the range of potencies observed, all Emax values reported in this application are calculated using the maximum average response at a single concentration.
Functional Assay 3 was performed under the same conditions as Functional Assay 2, except that clone H12H was used instead of clone H10H.
The clones that were used in the primary functional assay gave undiscernable differences in this assay.

human mGluR5 receptor = target: T2, human mGluR5 receptor (Homo sapiens, UniProt P41594); test: Functional Assay 1: intracellular Ca2+ mobilization, positive allosteric modulation of glutamate EC20 response; type: cell-based; settings: maximum % effect relative to glutamate ECMax
T2 construct: expressed in transfected cells; host or cells: HEK-293
T2 sequence (P41594 21-1180 isoform P41594-2 limits assumed): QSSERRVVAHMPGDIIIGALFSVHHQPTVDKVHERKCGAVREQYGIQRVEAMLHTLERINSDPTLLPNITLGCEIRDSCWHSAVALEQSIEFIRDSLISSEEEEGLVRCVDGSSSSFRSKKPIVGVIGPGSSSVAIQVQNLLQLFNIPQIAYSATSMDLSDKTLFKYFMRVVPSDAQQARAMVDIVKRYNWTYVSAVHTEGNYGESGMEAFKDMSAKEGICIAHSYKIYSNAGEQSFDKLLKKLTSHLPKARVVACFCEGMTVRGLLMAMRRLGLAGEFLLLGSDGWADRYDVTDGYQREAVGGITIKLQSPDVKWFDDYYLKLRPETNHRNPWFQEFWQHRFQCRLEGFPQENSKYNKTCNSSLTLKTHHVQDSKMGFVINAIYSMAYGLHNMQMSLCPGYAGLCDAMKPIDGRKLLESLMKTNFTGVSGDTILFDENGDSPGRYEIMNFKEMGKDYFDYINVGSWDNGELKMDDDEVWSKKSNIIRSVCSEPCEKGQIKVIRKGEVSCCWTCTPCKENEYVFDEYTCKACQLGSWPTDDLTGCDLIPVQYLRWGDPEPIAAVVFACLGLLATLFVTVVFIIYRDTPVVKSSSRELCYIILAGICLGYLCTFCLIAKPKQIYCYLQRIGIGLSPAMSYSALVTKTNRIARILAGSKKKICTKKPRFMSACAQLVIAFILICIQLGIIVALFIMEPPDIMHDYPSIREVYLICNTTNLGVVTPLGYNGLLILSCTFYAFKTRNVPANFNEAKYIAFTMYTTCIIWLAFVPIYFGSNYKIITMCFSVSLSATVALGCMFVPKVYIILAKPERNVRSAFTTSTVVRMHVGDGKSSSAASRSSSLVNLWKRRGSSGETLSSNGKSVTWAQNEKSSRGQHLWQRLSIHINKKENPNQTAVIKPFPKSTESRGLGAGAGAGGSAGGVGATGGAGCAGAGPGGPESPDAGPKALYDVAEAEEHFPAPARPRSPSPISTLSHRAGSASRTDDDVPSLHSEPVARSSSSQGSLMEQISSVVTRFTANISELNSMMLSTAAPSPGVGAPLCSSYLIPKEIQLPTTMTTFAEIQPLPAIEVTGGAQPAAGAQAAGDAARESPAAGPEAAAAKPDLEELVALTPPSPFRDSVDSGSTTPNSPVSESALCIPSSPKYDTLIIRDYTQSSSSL

human mGluR5a receptor [2] = target: T1, human mGluR5a receptor; test: Functional Assay 2: Ca2+ mobilization, HEK cells with human mGluR5a receptor (H10H cell line); type: cell-based; settings: HEK293; H10H cell line; maximum average response at a single concentration, relative to glutamate ECMax
[3] = system: amphetamine-induced hyperlocomotion; test: Rat hyperlocomotion assay (reversal of amphetamine-induced hyperlocomotion); type: in vivo; settings: male Sprague-Dawley rats; 3.0, 10.0, 30.0, 56.6 mg/kg p.o.; amphetamine sulphate 1.0 mg/kg s.c.; FIG. 1
Procedure: Locomotor activity was assessed as mean distance traveled (cm) in standard 16×16 photocell testing chambers measuring 43.2 cm (Length)×43.2 cm (Width)×30.5 cm (Height) (Med Associates, St. Albans, Vt.). Animals were habituated to individual activity chambers for at least 30 min prior to drug administration. Following administration of drug or vehicle, activity was recorded for a 90 minute time period. Data was expressed as the mean (±SEM) distance traveled recorded in 5 min intervals over the test period. The data was analyzed using repeated measures analysis of variance (ANOVA) followed by post-hoc testing using Dunnett's test, when appropriate. A difference was considered significant when p≦05. […]
The animals were habituated in Smart Open Field locomotor activity test chambers (Hamilton-Kinder, San Diego, Calif.) with 16×16 photobeams to automatically record locomotor activity for 30 min and then dosed with vehicle or test compound. […] At 60 min, all rats were injected subcutaneously with 1 mg/kg amphetamine or vehicle and then monitored for an additional 60 min. Animals are monitored for a total of 120 minutes. Data are expressed as changes in ambulation defined as total number of beam breaks per 5 min periods.
The data for the dose-response studies were analyzed by a between-group analysis of variance. […]

T1 sequence (P41594 21-1180 isoform P41594-2 limits assumed): as above

Row | EC50 (human mGluR5a receptor [1]) | Emax (human mGluR5a receptor [1]) | melting point | Emax (human mGluR5 receptor) | Emax (human mGluR5a receptor [2]) | Structure (SMILES) | reversal of amphetamine-induced hyperlocomotion [3]
1 | 1.41 µM | 57% | 87.2 to 87.8 °C |  |  | C[C@@H](N1CCc2nc(COc3cccc(F)c3)sc2C1=O)C(C)(C)C [Compound 7, 2-[(3-fluorophenoxy)methyl]-6,7-dihydro-5-[(1R)-1,2,2-trimethylpropyl]-thiazolo[5,4-c]pyridin-4(5H)-one] | 
2 |  |  |  | 88% | 77% | CN1CCc2nc(COc3ccccc3)sc2C1=O [Compound 8, 6,7-dihydro-5-methyl-2-(phenoxymethyl)-thiazolo[5,4-c]pyridin-4(5H)-one] | dose-dependent reversal effects
3 | 0.933 µM | 58% | 108.2 to 108.9 °C |  |  | O=C1c2sc(OCc3cccc(F)c3)nc2CCN1c1cccc(C(F)(F)F)c1 [Compound 30, 2-[(3-fluorophenyl)methoxy]-6,7-dihydro-5-[3-(trifluoromethyl)phenyl]-thiazolo[5,4-c]pyridin-4(5H)-one] | 
4 | > 30.2 µM | 21% |  |  |  | C[C@@H](N1CCc2nc(OCc3cccc(F)c3)sc2C1=O)C(C)(C)C [Compound 77, 2-[(3-fluorophenyl)methoxy]-6,7-dihydro-5-[(1R)-1,2,2-trimethylpropyl]-thiazolo[5,4-c]pyridin-4(5H)-one] | 
